Consider two compounds from patent publication US20230085307A1, “PYRIDAZINONE COMPOUND AND HERBICIDE” (NISSAN CHEMICAL CORPORATION, priority 2019, published 2023).

Assay [1] has as its system oval-leafed pondweed. Description: Test Example 1: herbicidal activity, application before weed generation under submerged conditions (Table 16, symbol C). It is filed as in vivo, oval-leafed pondweed (Monochoria vaginalis). The source says:
(§1) [Test Example 1] Herbicidal Activity Test by Application before Weed Generation under Submerged Conditions After alluvial soil was placed into 1/10000 are of Wagner pot, water was poured and mixed to form a submerged condition having a water depth of 4 cm. Seeds of late watergrass, Japanese bulrush, and oval-leafed pondweed were sowed in a mixed manner in the aforementioned pot, and then 2.5 leaf stage rice plant seedlings were transplanted thereto. On the day of sowing seeds, the emulsion agent of the compound of the present invention prepared according to Formulation Example 2 was diluted with water so as to achieve a predetermined herbicide amount, and the diluted emulsion agent was applied to the surface of the water. The pot was placed in a greenhouse at 25° C. to 30° C. for growth of the plants. Three weeks after the herbicide application, the effect of the herbicide on each plant was evaluated according to the following criteria. Evaluation Criteria 5: Herbicidal rate of 90% or more (almost completely withered) 4: Herbicidal rate of 70% or more and less than 90% 3: Herbicidal rate of 40% or more and less than 70% 2: Herbicidal rate of 20% or more and less than 40% 1: Herbicidal rate of 5% or more and less than 20% 0: Herbicidal rate of 5% or less (almost no effect)

For assay [2], the system named is Japanese bulrush. Nature of the assay: Test Example 1: herbicidal activity, application before weed generation under submerged conditions (Table 16, symbol B). The class given is in vivo, Japanese bulrush (Schoenoplectus juncoides).
From the text: as §1

Assay [3] has as its system Chinese sprangletop. Nature of the assay: Test Example 3: herbicidal effect by foliage application, Wagner pot (Table 18, symbol D). The class given is in vivo, chinese sprangletop (Leptochloa chinensis). In short, it runs like this: (§2)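 Plants were sown in alluvial soil held under 0.1–0.5 cm standing water and grown 14 days in a greenhouse at 25–30 °C. An emulsifiable formulation, water-diluted to the set dose, was then sprayed onto the foliage, and effects were scored three weeks later using previously defined criteria.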

The test system of assay [4] is rice flat sedge. Nature of the assay: Test Example 3: herbicidal effect by foliage application, Wagner pot (Table 18, symbol E). The class given is in vivo, rice flat sedge (Cyperus iria). In short, it runs like this:
as §2

For assay [5], the system named is late watergrass. Description: Test Example 1: herbicidal activity, application before weed generation under submerged conditions (Table 16, symbol A). The class given is in vivo, late watergrass (Echinochloa oryzicola).
From the text: as §1

The test system of assay [6] is barnyard grass. Nature of the assay: Test Example 3: herbicidal effect by foliage application, Wagner pot (Table 18, symbol H). It is filed as in vivo, barnyard grass (Echinochloa crus-galli). Put shortly: as §2
Where [7] appears, read: amount of applied herbicide 224 g/ha.
Where [8] appears, read: amount of applied herbicide 320 g/ha.

`Cc1nn(C)c(=O)c(-c2c(-c3cccc(OCC(F)(F)F)c3)sc3ccc(F)cc23)c1O` [2-238]: in assay [1] (224 g/ha applied herbicide), the “Herbicidal effect on C: oval-leafed pondweed (grade 0-5)” value is on record as 0 (Herbicidal rate of 5% or less (almost no effect)). The “Herbicidal effect on B: Japanese bulrush (grade 0-5)” value in assay [2] (224 g/ha applied herbicide) is 0 (Herbicidal rate of 5% or less (almost no effect)). Further, the “herbicidal effect on D: Chinese sprangletop” value in assay [3] (setting [7]) was 2 (Herbicidal rate of 20% or more and less than 40%). Besides, the “herbicidal effect on E: rice flat sedge” value in assay [4] (setting [7]) is 3 (Herbicidal rate of 40% or more and less than 70%). The “Herbicidal effect on A: late watergrass (grade 0-5)” value in assay [5] (224 g/ha applied herbicide) is 3 (Herbicidal rate of 40% or more and less than 70%). Besides, the “herbicidal effect on H: barnyard grass” value in assay [6] (setting [7]) was 3 (Herbicidal rate of 40% or more and less than 70%).

For the compound `Cc1nn(C)c(=O)c(-c2c(-c3cc(C(F)(F)F)cc(C(F)(F)F)c3)sc3ccc(F)cc23)c1O` [2-358], the “Herbicidal effect on C: oval-leafed pondweed (grade 0-5)” value in assay [1] (320 g/ha applied herbicide) is on record as 0 (Herbicidal rate of 5% or less (almost no effect)). Also, the “Herbicidal effect on B: Japanese bulrush (grade 0-5)” value in assay [2] (320 g/ha applied herbicide) is 0 (Herbicidal rate of 5% or less (almost no effect)). Further, in assay [3] (setting [8]), the “herbicidal effect on D: Chinese sprangletop” value is 1 (Herbicidal rate of 5% or more and less than 20%). For the same compound, the “herbicidal effect on E: rice flat sedge” value in assay [4] (setting [8]) was 3 (Herbicidal rate of 40% or more and less than 70%). For the same compound, the “Herbicidal effect on A: late watergrass (grade 0-5)” value in assay [5] (320 g/ha applied herbicide) is 3 (Herbicidal rate of 40% or more and less than 70%). In addition, the “herbicidal effect on H: barnyard grass” value in assay [6] (setting [8]) is 3 (Herbicidal rate of 40% or more and less than 70%).
